Results taken from patent US11970497B2, “Tricyclic AKR1C3 dependent KARS inhibitors” (Novartis AG, priority 2019, dated 2024).

Columns and labels:
NCI-H661 = assay: Expanded lung cancer cell line proliferation assay; assay type: cell-based; settings: Homo sapiens; NCI-H661, 72 h, average of PrestoBlue and Cell Titer Glo; AKR1C3 3 TPM; read-out: Absolute Qualified AC50
How it was run: (§1)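 Seed 1000–2000 cells/well in RPMI-1640 + 10% FBS; overnight 37 °C; Day 0 plate read for fold-growth tracking; add compound (8-pt, 1:3.16, top 1 μM, triplicate); incubate 72 h; read PrestoBlue then CellTiter-Glo; NC1 normalization gives AC50.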

NCI-H226 = assay: Expanded lung cancer cell line proliferation assay; assay type: cell-based; settings: Homo sapiens; NCI-H226, 72 h, average of PrestoBlue and Cell Titer Glo; AKR1C3 2.9 TPM; read-out: Absolute Qualified AC50
How it was run: as §1

Calu-6 = assay: Expanded lung cancer cell line proliferation assay; assay type: cell-based; settings: Homo sapiens; Calu-6, 72 h, average of PrestoBlue and Cell Titer Glo; AKR1C3 32.5 TPM; read-out: Absolute Qualified AC50
How it was run: as §1

DMS-53 = assay: Expanded lung cancer cell line proliferation assay; assay type: cell-based; settings: Homo sapiens; DMS-53, 72 h, average of PrestoBlue and Cell Titer Glo; AKR1C3 59.7 TPM; read-out: Absolute Qualified AC50
How it was run: as §1

CAL-12T = assay: Expanded lung cancer cell line proliferation assay; assay type: cell-based; settings: Homo sapiens, 72 h, average of PrestoBlue and Cell Titer Glo, AKR1C3 23.6 TPM, read-out: Absolute Qualified AC50
How it was run: as §1

NCI-H1703 = assay: Expanded lung cancer cell line proliferation assay; assay type: cell-based; settings: Homo sapiens; NCI-H1703, 72 h, average of PrestoBlue and Cell Titer Glo; AKR1C3 3.2 TPM; read-out: Absolute Qualified AC50
How it was run: as §1

BEN = assay: Expanded lung cancer cell line proliferation assay; assay type: cell-based; settings: 72 h, average of PrestoBlue and Cell Titer Glo, AKR1C3 2573.5 TPM, read-out: Absolute Qualified AC50
How it was run: as §1

NCI-H358 = assay: Expanded lung cancer cell line proliferation assay; assay type: cell-based; settings: Homo sapiens; NCI-H358, 72 h, average of PrestoBlue and Cell Titer Glo; AKR1C3 5.6 TPM; read-out: Absolute Qualified AC50
How it was run: as §1

NCI-H322 = assay: Expanded lung cancer cell line proliferation assay; assay type: cell-based; settings: NCI-H322, 72 h, average of PrestoBlue and Cell Titer Glo; AKR1C3 21 TPM; read-out: Absolute Qualified AC50
How it was run: as §1

[1] = test system: NCI-H460 human lung cancer xenograft; assay: In vivo efficacy in NCI-H460 xenograft; design: species or system mice; settings: for ΔT/ΔC: qd, Day 18
Protocol: Compound 40 Dose Dependent In Vivo Efficacy in the KEAP1 Mutant and Moderately AKR1C3 Expressing Human Lung Cancer Xenograft NCI-H460
Anti-cancer efficacy of Compound 40 was assessed in the NCI-H460 human lung cancer xenograft model in mice that expresses moderate levels of AKR1C3. NCI-H460 tumors were established in nude female mice by injection of a tumor cells subcutaneously. When tumors reached approximately 200 mm^3, mice were randomized according to tumor volume into treatment groups (n=7 per group) on Day 8.

SMILES	AC50 (NCI-H661) [µM]	AC50 (NCI-H226) [µM]	AC50 (Calu-6) [µM]	AC50 (DMS-53) [µM]	AC50 (CAL-12T) [µM]	AC50 (NCI-H1703) [µM]	AC50 (BEN) [µM]	AC50 (NCI-H358) [µM]	AC50 (NCI-H322) [µM]	Tumor response ([1]; 75 mg/kg qd)	ΔT/ΔC ([1]; 75 mg/kg, po) [%]	Tumor response ([1]; 150 mg/kg qd)	ΔT/ΔC ([1]; 150 mg/kg, po) [%]	ΔT/ΔC ([1]; 300 mg/kg po) [%]	Tumor response ([1]; 300 mg/kg qd)
CN1c2ccc(F)cc2C(=O)CC12CCN(C(=O)NCc1ccc(F)c(NCCO)c1)CC2 [Example 36, 6′-fluoro-N-(4-fluoro-3-((2-hydroxyethyl)amino)benzyl)-1′-methyl-4′-oxo-3′,4′-dihydro-1′H-spiro[piperidine-4,2′-quinoline]-1-carboxamide]	> 1	> 1	> 1	> 1	> 1	> 1	0.399	> 1	> 1	–	–	–	–	–	–
O=C1CC2(CCN(C(=O)NCc3ccc(F)cc3)CC2)Nc2ccc(F)cc21 [Example 40]	> 1	> 1	> 1	> 1	> 1	> 1	0.057	> 1	> 1	clear reduction in efficacy	25.9	some reduction in efficacy	5.6	1.8	Tumor stasis
